Test results published in ChEMBL document CHEMBL1201862, “PubChem BioAssay data set” (2004).
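Tested at 5 concentrations; 48 h exposure; 96-well plates; endpoints linearly interpolated, else capped at highest concentration. Abbreviation: GI50, concentration required for 50% inhibition of growth.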 Calls of active or inactive are those of the source. Cut-off read from the data, not from the text of the source: active = GI50 up to about 1.1 µM and inactive = higher.

Tests used:
Test in all cases: NCI-60 cell line screen, 48 h
786-0 = test system: 786-0
A498 = test system: A498
A549 = test system: A549
ACHN = test system: ACHN
CAKI-1 = test system: CAKI-1
CCRF-CEM = test system: CCRF-CEM
COLO 205 = test system: COLO 205
DLD-1 = test system: DLD-1
DMS-114 = test system: DMS-114
DMS-273 = test system: DMS-273
EKVX = test system: EKVX
HCC 2998 = test system: HCC 2998
HCT-116 = test system: HCT-116
HCT-15 = test system: HCT-15
HL-60 = test system: HL-60
HOP-18 = test system: HOP-18
HOP-62 = test system: HOP-62
HOP-92 = test system: HOP-92
HT-29 = test system: HT-29
IGROV-1 = test system: IGROV-1
K562 = test system: K562
KM-20L2 = test system: KM-20L2
KM12 = test system: KM12
LOX IMVI = test system: LOX IMVI
LXFL 529 = test system: LXFL 529
M14 = test system: M14
M19-MEL = test system: M19-MEL
MOLT-4 = test system: MOLT-4
Malme-3M = test system: Malme-3M
NCI-H226 = test system: NCI-H226
NCI-H23 = test system: NCI-H23
NCI-H460 = test system: NCI-H460
NCI-H522 = test system: NCI-H522
OVCAR-3 = test system: OVCAR-3
OVCAR-4 = test system: OVCAR-4
OVCAR-5 = test system: OVCAR-5
OVCAR-8 = test system: OVCAR-8
RPMI-8226 = test system: RPMI-8226
RXF 393 = test system: RXF 393
RXF 631 = test system: RXF 631
SF-268 = test system: SF-268
SF-295 = test system: SF-295
SF-539 = test system: SF-539
SK-MEL-28 = test system: SK-MEL-28
SK-MEL-2 = test system: SK-MEL-2
SK-MEL-5 = test system: SK-MEL-5
SK-OV-3 = test system: SK-OV-3
SN12C = test system: SN12C
SNB-19 = test system: SNB-19
SNB-75 = test system: SNB-75
SNB-78 = test system: SNB-78
SR = test system: SR
SW-620 = test system: SW-620
TK-10 = test system: TK-10
U-251 = test system: U-251
UACC-257 = test system: UACC-257
UACC-62 = test system: UACC-62
UO-31 = test system: UO-31
XF498 = test system: XF498

With `COc1ccc(C(=O)C(c2ccc(OC)cc2)C2C(=O)Oc3ccccc32)cc1` (stereo not given) the GI50 (786-0) was > 10 µM (inactive), the GI50 (A498) was > 10 µM (inactive) and the GI50 (A549) was > 10 µM (inactive). The GI50 (ACHN) was > 10 µM (inactive), the GI50 (CAKI-1) was > 10 µM (inactive) and the GI50 (CCRF-CEM) was > 10 µM (inactive). For the same molecule, the GI50 (COLO 205) was > 10 µM (inactive), the GI50 (DLD-1) was > 10 µM (inactive) and the GI50 (DMS-114) was > 10 µM (inactive). The GI50 (DMS-273) was > 10 µM (inactive), the GI50 (EKVX) was > 10 µM (inactive) and the GI50 (HCC 2998) was > 10 µM (inactive). The GI50 (HCT-116) was > 10 µM (inactive), the GI50 (HCT-15) was over 10 µM and the GI50 (HL-60) was > 10 µM (inactive). The GI50 (HOP-18) was 59.4 µM (inactive), the GI50 (HOP-62) was > 10 µM (inactive) and the GI50 (HOP-92) was > 10 µM (inactive). The GI50 (HT-29) was > 10 µM (inactive), the GI50 (IGROV-1) was > 10 µM (inactive) and the GI50 (K562) was > 10 µM (inactive). For the same molecule, the GI50 (KM-20L2) was > 10 µM (inactive), the GI50 (KM12) was > 10 µM (inactive) and the GI50 (LOX IMVI) was > 10 µM (inactive). For the same molecule, the GI50 (LXFL 529) was > 10 µM (inactive), the GI50 (M14) was > 10 µM (inactive) and the GI50 (M19-MEL) was > 10 µM (inactive). The GI50 (MOLT-4) was > 10 µM (inactive), the GI50 (Malme-3M) was > 10 µM (inactive) and the GI50 (NCI-H226) was > 10 µM (inactive). For the same molecule, the GI50 (NCI-H23) was > 10 µM (inactive), the GI50 (NCI-H460) was > 10 µM (inactive) and the GI50 (NCI-H522) was > 10 µM (inactive). The GI50 (OVCAR-3) was > 10 µM (inactive), the GI50 (OVCAR-4) was 5.98 µM (inactive) and the GI50 (OVCAR-5) was > 10 µM (inactive). For the same molecule, the GI50 (OVCAR-8) was > 10 µM (inactive), the GI50 (RPMI-8226) was > 10 µM (inactive) and the GI50 (RXF 393) was > 10 µM (inactive). For the same molecule, the GI50 (RXF 631) was > 10 µM (inactive), the GI50 (SF-268) was > 10 µM (inactive) and the GI50 (SF-295) was > 10 µM (inactive). For the same molecule, the GI50 (SF-539) was > 10 µM (inactive), the GI50 (SK-MEL-28) was > 10 µM (inactive) and the GI50 (SK-MEL-2) was > 10 µM (inactive). For the same molecule, the GI50 (SK-MEL-5) was > 10 µM (inactive), the GI50 (SK-OV-3) was > 10 µM (inactive) and the GI50 (SN12C) was > 10 µM (inactive). For the same molecule, the GI50 (SNB-19) was > 10 µM (inactive), the GI50 (SNB-75) was > 10 µM (inactive) and the GI50 (SNB-78) was 67.9 µM (inactive). The GI50 (SR) was > 10 µM (inactive), the GI50 (SW-620) was > 10 µM (inactive) and the GI50 (TK-10) was > 10 µM (inactive). For the same molecule, the GI50 (U-251) was > 10 µM (inactive), the GI50 (UACC-257) was > 10 µM (inactive) and the GI50 (UACC-62) was > 10 µM (inactive). The GI50 (UO-31) was 22.5 µM (inactive) and the GI50 (XF498) was > 10 µM (inactive).
With `OC1C2C=CCC1CCC2` (stereo not given) the GI50 (786-0) was > 100 µM (inactive), the GI50 (A498) was > 100 µM (inactive) and the GI50 (A549) was > 100 µM (inactive). The GI50 (ACHN) was > 100 µM (inactive), the GI50 (CAKI-1) was > 100 µM (inactive) and the GI50 (CCRF-CEM) was > 100 µM (inactive). The GI50 (COLO 205) was > 100 µM (inactive), the GI50 (DLD-1) was > 100 µM (inactive) and the GI50 (DMS-114) was > 100 µM (inactive). For the same molecule, the GI50 (DMS-273) was > 100 µM (inactive), the GI50 (EKVX) was > 100 µM (inactive) and the GI50 (HCT-116) was > 100 µM (inactive). For the same molecule, the GI50 (HL-60) was > 100 µM (inactive), the GI50 (HOP-18) was > 100 µM (inactive) and the GI50 (HOP-62) was > 100 µM (inactive). The GI50 (HOP-92) was > 100 µM (inactive), the GI50 (HT-29) was > 100 µM (inactive) and the GI50 (IGROV-1) was > 100 µM (inactive). For the same molecule, the GI50 (K562) was > 100 µM (inactive), the GI50 (KM-20L2) was > 100 µM (inactive) and the GI50 (KM12) was > 100 µM (inactive). For the same molecule, the GI50 (LOX IMVI) was > 100 µM (inactive), the GI50 (M14) was > 100 µM (inactive) and the GI50 (M19-MEL) was > 100 µM (inactive). The GI50 (MOLT-4) was > 100 µM (inactive), the GI50 (Malme-3M) was > 100 µM (inactive) and the GI50 (NCI-H226) was > 100 µM (inactive). For the same molecule, the GI50 (NCI-H23) was > 100 µM (inactive), the GI50 (NCI-H460) was > 100 µM (inactive) and the GI50 (NCI-H522) was > 100 µM (inactive). For the same molecule, the GI50 (OVCAR-3) was > 100 µM (inactive), the GI50 (OVCAR-4) was > 100 µM (inactive) and the GI50 (OVCAR-5) was > 100 µM (inactive). The GI50 (OVCAR-8) was > 100 µM (inactive), the GI50 (RPMI-8226) was > 100 µM (inactive) and the GI50 (RXF 393) was > 100 µM (inactive). The GI50 (RXF 631) was > 100 µM (inactive), the GI50 (SF-268) was > 100 µM (inactive) and the GI50 (SF-295) was > 100 µM (inactive). For the same molecule, the GI50 (SF-539) was > 100 µM (inactive), the GI50 (SK-MEL-28) was > 100 µM (inactive) and the GI50 (SK-MEL-2) was > 100 µM (inactive). For the same molecule, the GI50 (SK-MEL-5) was > 100 µM (inactive), the GI50 (SK-OV-3) was > 100 µM (inactive) and the GI50 (SN12C) was > 100 µM (inactive). The GI50 (SNB-19) was > 100 µM (inactive), the GI50 (SNB-75) was > 100 µM (inactive) and the GI50 (SNB-78) was > 100 µM (inactive). The GI50 (SR) was > 100 µM (inactive), the GI50 (SW-620) was > 100 µM (inactive) and the GI50 (TK-10) was > 100 µM (inactive). For the same molecule, the GI50 (U-251) was > 100 µM (inactive), the GI50 (UACC-257) was > 100 µM (inactive) and the GI50 (UACC-62) was > 100 µM (inactive). The GI50 (UO-31) was > 100 µM (inactive) and the GI50 (XF498) was > 100 µM (inactive).
